Reference: the supplement of paper PMC10307832

Columns and labels:
Assay in all cases: relative viability (nuclei count vs DMSO), 5 days (fraction); higher = more cells survive
[1] = tested on: 201T
Summary of the method: (§1)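 Relative viability equals treated-well nuclei counts divided by vehicle-well nuclei counts. Counts came from 4× images of lung cancer cell lines grown in 1536-well plates for 5 days after pin-tool dosing on the day after seeding. Dosing used one drug alone or a fixed anchor-drug dose plus five library-drug doses (not always all listed) in √10 steps, and values are medians of duplicate plates.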

[2] = tested on: BEN
Summary of the method: as §1

[3] = tested on: CAL-12T
Summary of the method: as §1

[4] = tested on: H3255
Summary of the method: as §1

[5] = tested on: HARA
Summary of the method: as §1

[6] = tested on: HCC-15
Summary of the method: as §1

[7] = tested on: HCC-827
Summary of the method: as §1

[8] = tested on: LC-2-ad
Summary of the method: as §1

[9] = tested on: LCLC-103H
Summary of the method: as §1

[10] = tested on: LK-2
Summary of the method: as §1

[11] = tested on: LU99A
Summary of the method: as §1

[12] = tested on: LXF-289
Summary of the method: as §1

[13] = tested on: NCI-H1437
Summary of the method: as §1

[14] = tested on: NCI-H1651
Summary of the method: as §1

[15] = tested on: NCI-H1792
Summary of the method: as §1

[16] = tested on: NCI-H2085
Summary of the method: as §1

[17] = tested on: NCI-H23
Summary of the method: as §1

[18] = tested on: NCI-H2405
Summary of the method: as §1

[19] = tested on: NCI-H322M
Summary of the method: as §1

[20] = tested on: RERF-LC-KJ
Summary of the method: as §1

Cc1cnc(-c2cnc(NCCNc3ccc(C#N)cn3)nc2-c2ccc(Cl)cc2Cl)[nH]1 + NC(=O)Nc1cc(-c2cccc(F)c2)sc1C(=O)N[C@H]1CCCNC1 [AZD7762] (partner 0.2 µM) gave a relative viability ([1]; first compound 0.08 µM) of 0.702, a relative viability ([1]; first compound 0.8 µM) of 0.567 and a relative viability ([1]; first compound 2.53 µM) of 0.619. The relative viability ([2]; first compound 0.08 µM) was 0.714, the relative viability ([2]; first compound 0.253 µM) was 0.699 and the relative viability ([2]; first compound 0.8 µM) was 0.726. The relative viability ([2]; first compound 2.53 µM) was 0.736, the relative viability ([3]; first compound 0.08 µM) was 0.586 and the relative viability ([3]; first compound 0.253 µM) was 0.567. For the same compound, the relative viability ([3]; first compound 0.8 µM) was 0.544, the relative viability ([3]; first compound 2.53 µM) was 0.693 and the relative viability ([4]; first compound 0.08 µM) was 0.996. The relative viability ([4]; first compound 0.253 µM) was 0.887, the relative viability ([4]; first compound 0.8 µM) was 0.879 and the relative viability ([4]; first compound 2.53 µM) was 0.888. It also gave a relative viability ([5]; first compound 0.08 µM) of 0.297, a relative viability ([5]; first compound 0.253 µM) of 0.191 and a relative viability ([5]; first compound 0.8 µM) of 0.37. For the same compound, the relative viability ([5]; first compound 2.53 µM) was 1, the relative viability ([6]; first compound 0.08 µM) was 1.17 and the relative viability ([6]; first compound 0.253 µM) was 0.968. The relative viability ([6]; first compound 0.8 µM) was 1.2, the relative viability ([6]; first compound 2.53 µM) was 1.13 and the relative viability ([7]; first compound 0.08 µM) was 0.242. The relative viability ([7]; first compound 0.253 µM) was 0.169, the relative viability ([7]; first compound 0.8 µM) was 0.193 and the relative viability ([7]; first compound 2.53 µM) was 0.171. For the same compound, the relative viability ([8]; first compound 0.08 µM) was 0.851, the relative viability ([8]; first compound 0.8 µM) was 0.687 and the relative viability ([8]; first compound 2.53 µM) was 0.841. The relative viability ([9]; first compound 0.08 µM) was 0.86, the relative viability ([9]; first compound 0.253 µM) was 0.76 and the relative viability ([9]; first compound 0.8 µM) was 0.714. The relative viability ([9]; first compound 2.53 µM) was 0.757, the relative viability ([10]; first compound 0.08 µM) was 0.436 and the relative viability ([10]; first compound 0.253 µM) was 0.421. It also gave a relative viability ([10]; first compound 2.53 µM) of 0.393, a relative viability ([11]; first compound 0.08 µM) of 0.393 and a relative viability ([11]; first compound 0.253 µM) of 0.368. For the same compound, the relative viability ([11]; first compound 0.8 µM) was 0.333, the relative viability ([11]; first compound 2.53 µM) was 0.389 and the relative viability ([12]; first compound 0.08 µM) was 1.16. The relative viability ([12]; first compound 0.253 µM) was 1.05, the relative viability ([12]; first compound 0.8 µM) was 1.18 and the relative viability ([12]; first compound 2.53 µM) was 1.19. It also gave a relative viability ([13]; first compound 0.08 µM) of 1.17, a relative viability ([13]; first compound 0.253 µM) of 1.06 and a relative viability ([13]; first compound 0.8 µM) of 1.06. It also gave a relative viability ([13]; first compound 2.53 µM) of 1.01, a relative viability ([14]; first compound 0.08 µM) of 0.506 and a relative viability ([14]; first compound 0.253 µM) of 0.406. For the same compound, the relative viability ([14]; first compound 0.8 µM) was 0.454, the relative viability ([14]; first compound 2.53 µM) was 0.459 and the relative viability ([15]; first compound 0.08 µM) was 0.8. For the same compound, the relative viability ([15]; first compound 0.253 µM) was 0.611, the relative viability ([15]; first compound 0.8 µM) was 0.594 and the relative viability ([15]; first compound 2.53 µM) was 0.446. The relative viability ([16]; first compound 0.08 µM) was 1.02, the relative viability ([16]; first compound 0.253 µM) was 0.77 and the relative viability ([16]; first compound 0.8 µM) was 0.901. For the same compound, the relative viability ([16]; first compound 2.53 µM) was 1.05, the relative viability ([17]; first compound 0.08 µM) was 0.313 and the relative viability ([17]; first compound 0.253 µM) was 0.16. It also gave a relative viability ([17]; first compound 0.8 µM) of 0.247, a relative viability ([17]; first compound 2.53 µM) of 0.256 and a relative viability ([18]; first compound 0.08 µM) of 0.758. The relative viability ([18]; first compound 0.253 µM) was 0.595, the relative viability ([18]; first compound 0.8 µM) was 0.744 and the relative viability ([18]; first compound 2.53 µM) was 0.333. The relative viability ([19]; first compound 0.08 µM) was 0.526, the relative viability ([19]; first compound 0.253 µM) was 0.546 and the relative viability ([19]; first compound 0.8 µM) was 0.566. It also gave a relative viability ([19]; first compound 2.53 µM) of 0.675, a relative viability ([20]; first compound 0.08 µM) of 1.08 and a relative viability ([20]; first compound 0.253 µM) of 0.801. For the same compound, the relative viability ([20]; first compound 0.8 µM) was 0.881 and the relative viability ([20]; first compound 2.53 µM) was 0.985.
